Experimental data reported in patent US20120309622A1, “HERBICIDES CONTAINING SUBSTITUTED THIEN-3-YL-SULPHONYLAMINIO(THIO)CARBONYL-TRIAZOLIN(ETHI)ONES” (BAYER INTELLECTUAL PROPERTY GMBH, priority 2001, published 2012).
Read-outs that look alike come from different tables or passages of the source.

Columns and labels:
Test in all cases: Post-emergence test/greenhouse, % damage after three weeks
Assay type in all cases: in vivo
[1] = test system: Lolium perenne
[2] = test system: Bromus secalinus
Description: (§1) The expected action for a given combination of two herbicides can be calculated as follows (cf. COLBY, S. R.: “Calculating synergistic and antagonistic responses of herbicide combinations”, Weeds 15, pages 20-22, 1967):
(§2) If the actual damage exceeds the calculated value, the combination has a superadditive effect, that is to say a synergistic effect.
(§3) Test plants are grown under control conditions (temperature and light).
(§4) Following the spray application, the plant containers are kept in the greenhouse under constant light and temperature conditions.
(§5) After three weeks, the degree of damage to the plants is rated in % damage in comparison to the development of the untreated control.

[3] = test system: Cyperus esculentus
Text: as §1
(§6) If • X=% damage by herbicide A (active compound of the formula I) at an application rate of p kg/ha and • Y=% damage by herbicide B (active compound of the formula II) at an application rate of q kg/ha and • E=the expected damage of herbicides A+B at an application rate of p+q kg/ha, then
as §2
(§7) Test plants are grown under control conditions (temperature and light). Once the plants have reached a height of 5 to 15 cm, the test compound or the combination of test compounds is applied by spraying such that the particular amounts of active compound desired are applied per unit area. The concentration of the spray liquor is chosen so that the particular amounts of active compound desired are applied in 500 litres of water/ha.
as §4, §5
(§8) The figures denote: • 0%=no effect (like untreated control) • 100%=total destruction

[4] = test system: Eriochloa villosa
[5] = test system: Cassia tora; settings: 30 g of ai/ha
Description: as §1, §2, §3, §4, §5

[6] = test system: Setaria viridis; settings: for Setria viridis observed: post-emergence
Text: as §1, §6, §2, §7, §4, §5, §8

[7] = test system: Alopecurus myosuroides; settings: 250 g of ai/ha
Text: as §1, §6, §2, §7, §4, §5, §8

[8] = test system: Veronica persicaria
Description: as §1, §2, §3, §4, §5

[9] = test system: Digitaria sanguinalis
Text: as §1, §6, §2, §7, §4, §5, §8

[10] = test system: Matricaria inodora
Text: as §1, §6, §2, §7, §4, §5, §8

[11] = Bromus secalinus, post-emergence, 504 h, 4 g of ai/ha, read-out: Bromus secalinus observed
[12] = Bromus secalinus, post-emergence, 504 h, read-out: Bromus secalinus observed

`COc1nc(C)nc(=NC(=O)NS(=O)(=O)c2ccccc2C(=O)O)[nH]1` [metsulfuron] gave a Lolium perenne observed ([1]; 2 g of ai/ha) of 70%, a pest or weed control at 2 g/ha ([2]; Bromus secalinus, post-emergence, 504 h, 2 g of ai/ha, read-out: Bromus secalinus observed) of 0% and a pest or weed control at 4 g/ha [2, 11] of 0%. The Cyperus esculentus observed ([3]; 4 g of ai/ha) was 30%.
`COc1cc(OC)nc(NC(=O)NS(=O)(=O)c2ncccc2C(=O)N(C)C)n1` [nicosulfuron] showed an Eriochloa villosa observed ([4]; 30 g of ai/ha) of 90%.
In the case of `O=C(Nc1ccc(F)cc1)c1cccc(Oc2cccc(C(F)(F)F)c2)n1` [picolinafen], the Eriochloa villosa observed ([4]; 15 g of ai/ha) is reported as 30%, the Eriochloa villosa observed ([4]; 30 g of ai/ha) is reported as 80% and the Lolium perenne observed ([1]; 15 g of ai/ha) is reported as 0%. The Lolium perenne observed ([1]; 30 g of ai/ha) was 20% and the Cassia tora observed [5] was 70%.
With `CCOC(=O)COc1cc(-c2nn(C)c(OC(F)F)c2Cl)c(F)cc1Cl` [pyraflufen ethyl] the Setria viridis observed ([6]; application rate 2 g of ai/ha) was 40% and the Setria viridis observed ([6]; application rate 4 g of ai/ha) was 40%.
`CCOC(=O)COc1cc(-c2nn(C)c(OC(F)F)c2Cl)c(F)cc1Cl` [pyraflufen-ethyl] gave a Lolium perenne observed ([1]; 2 g of ai/ha) of 0%, a Lolium perenne observed ([1]; 4 g of ai/ha) of 30% and a pest or weed control at 2 g/ha [2, 12] of 30%. The pest or weed control at 4 g/ha [2, 12] was 30%.
`C[S+](C)C.O=C([O-])CNCP(=O)(O)O` [sulfosate] gave a Lolium perenne observed ([1]; 250 g of ai/ha) of 70% and an Alopecurus myosuroides observed [7] of 30%.
With `COC(=O)c1ccccc1S(=O)(=O)NC(=O)N(C)c1nc(C)nc(OC)n1` [tribenuron-methyl] the pest or weed control at 4 g/ha [2, 11] was 0%, the pest or weed control at 8 g/ha ([2]; Bromus secalinus, post-emergence, 504 h, 8 g of ai/ha, read-out: Bromus secalinus observed) was 0% and the Veronica persicaria observed ([8]; 4 g of ai/ha) was 90%. For the same compound, the Cyperus esculentus observed ([3]; 4 g of ai/ha) was 0% and the Cyperus esculentus observed ([3]; 8 g of ai/ha) was 0%.
`COc1nc(NC(=O)NS(=O)(=O)c2ccccc2C(F)(F)F)nc(C(F)(F)F)n1` [tritosulfuron] gave a Lolium perenne observed ([1]; 15 g of ai/ha) of 0%, a Lolium perenne observed ([1]; 30 g of ai/ha) of 0% and a Digitaria sanguinalis observed ([9]; 15 g of ai/ha) of 30%. It also gave a Digitaria sanguinalis observed ([9]; 30 g of ai/ha) of 40% and a Setaria viridis observed ([6]; 30 g of ai/ha) of 0%.
fluroxypyr was tested, and the Bromus secalinus observed ([2]; 60 g of ai/ha) was 0%, the Bromus secalinus observed ([2]; 125 g of ai/ha) was 0% and the Veronica persicaria observed ([8]; 125 g of ai/ha) was 90%. For the same compound, the Matricaria inodora observed ([10]; 60 g of ai/ha) was 30% and the Matricaria inodora observed ([10]; 125 g of ai/ha) was 70%.
Compound glyphosate has an Eriochloa villosa observed ([4]; 250 g of ai/ha) of 70%, a Bromus secalinus observed ([2]; 125 g of ai/ha) of 20% and a Bromus secalinus observed ([2]; 250 g of ai/ha) of 80%. For the same compound, the Veronica persicaria observed ([8]; 250 g of ai/ha) was 50%.
Compound imazamox has a Bromus secalinus observed ([2]; 8 g of ai/ha) of 60%, a Digitaria sanguinalis observed ([9]; 8 g of ai/ha) of 30% and a Matricaria inodora observed ([10]; 8 g of ai/ha) of 30%. It also gave a Matricaria inodora observed ([10]; 15 g of ai/ha) of 50%.
For iodosulfuron, the Bromus secalinus observed ([2]; 2 g of ai/ha) was 0%, the Bromus secalinus observed ([2]; 4 g of ai/ha) was 0% and the Veronica persicaria observed ([8]; 2 g of ai/ha) was 90%. For the same compound, the Setaria viridis observed ([6]; 2 g of ai/ha) was 0% and the Setaria viridis observed ([6]; 4 g of ai/ha) was 0%.
In the case of sulcotrione, the Bromus secalinus observed ([2]; 60 g of ai/ha) is reported as 0% and the Bromus secalinus observed ([2]; 120 g of ai/ha) is reported as 30%.
In the case of terbuthylazine, the Bromus secalinus observed ([2]; 500 g of ai/ha) is reported as 50%.
In the case of thifensulfuron-methyl, the Eriochloa villosa observed ([4]; 15 g of ai/ha) is reported as 10%, the Bromus secalinus observed ([2]; 8 g of ai/ha) is reported as 0% and the Bromus secalinus observed ([2]; 15 g of ai/ha) is reported as 0%. For the same compound, the Setaria viridis observed ([6]; 15 g of ai/ha) was 0%.
